# Source: patent US20240228562A1, “NOVEL LIPOCALIN MUTEINS SPECIFIC FOR CONNECTIVE TISSUE GROWTH FACTOR (CTGF)” (PIERIS PHARMACEUTICALS GMBH, priority 2021, published 2024)
# Key:
# [1] = system: CCL-206 lung fibroblasts co-cultured with primary murine Epcam-positive epithelial progenitor cells; assay: Lung organoid formation model; assay type: cell-based; conditions: 14 days treatment; nintedanib 100 nM; SEQ ID NO: 74 at 100 nM
# Experimental: The effect of CTGF-targeting lipocalin muteins was analyzed using an organoid model for lung regeneration. In this model, CCL-206 lung fibroblasts are co-cultured with freshly isolated primary murine Epcam-positive epithelial progenitor cells, and the number of formed organoids is analyzed after 14 days. TGF-b1 pre-treatment of CCL-206 fibroblasts leads to an impaired organoid formation and resembles an impairment of lung regeneration as for example observed in lung disease, such as IPF. The impaired formation of organoids can be rescued by treatment with different drugs, such as nintedanib, which is used as a positive control in this model. […] Analysis of organoid numbers confirmed the impairment of organoid formation by TGF-b1 stimulation.
# [2] = system: idiopathic pulmonary fibrosis (IPF); conditions: cited from earlier work; for Decline in lung function in IPF: FDA-approved drugs for IPF; for Tolerability in IPF patients: gastrointestinal and other drug-related tolerability issues
# [3] = system: human melanoma cell lines; conditions: cited from earlier work
molecule,measurement,setting,value
COC(=O)c1ccc2c(c1)NC(=O)/C2=C(\Nc1ccc(N(C)C(=O)CN2CCN(C)CC2)cc1)c1ccccc1 [nintedanib],Effect on TGF-b1 impaired organoid formation,[1],partially rescued
same,Decline in lung function in IPF,[2],slowing down the decline in lung function
same,Tolerability in IPF patients,[2],not well-tolerated
Cc1ccc(=O)n(-c2ccccc2)c1 [pirfenidone],Decline in lung function in IPF,[2],slowing down the decline in lung function
same,Tolerability in IPF patients,[2],not well-tolerated
FG-3019/pamrevlumab: anti-CTGF monoclonal antibody in clinical trials,Disease progression in patients suffering from IPF,[2]; phase 2 clinical trial,attenuated disease progression
same,Migration of human melanoma cell lines,[3],inhibition of the migration
